Test [1] concerns H292 cells. The test can be described thus: MTT cell viability assay (cytotoxicity). Format: cell-based, human. Particulars: read-out: IC50 ± SD H292. The procedure:
(§1) NSCLCs H292 and H460 were treated with various concentrations of derivatives of the RT right-half analog for 24 h. […] However, the IC50 values for DH_17, DH_20, DH_23, and DH_26 in H460 cells were greater than 100 μM. TM-(−)-18 was identified as a potent compound in a previous study. The structure of TM-(−)-18 was present in Figure 1A. […] To assess the selectivity of DH_28, DH_30, DH_31, and TM-(−)-18 in lung cancer cells, non-tumorigenic epithelial cell lines derived from human bronchial epithelial cells (BEAS-2B) were treated with DH_28, DH_30, DH_31, and TM-(−)-18 at various concentrations for 24 h.
(§2) MTT assay was conducted to ascertain cell viability in the presence of DH_17, DH_20, DH_23, DH_26, DH_28, DH_30, DH_31, or TM-(–)-18. H292 and H460 cells (1.0 × 10^4 cells per well) were seeded in 96-well plates. Following overnight incubation, the cells were treated with different concentrations of RT right–half analogs (0–100 μM) for 24 h at 37 °C. Subsequently, cell viability was assessed using MTT assay, following the manufacturers’ protocols. The optical density was measured at 570 nm using a CLARIOStar microplate reader (BMG Labtech, Ortenberg, Germany).
Background: Tetrazolium dyes change colour on reduction, which living cells bring about.

The test system of test [2] is H460 cells. The test can be described thus: MTT cell viability assay (cytotoxicity). It counts as cell-based, human. Particulars: Homo sapiens, NCI-H460, 24 h, read-out: IC50 ± SD H460. The procedure:
as §1, §2

The target in the next test is T1, STAT3 (Homo sapiens, UniProt P40763).
T1 construct: endogenous in cells; host or cells: NCI-H460 (ATCC HTB-177)
T1 sequence (P40763 whole entry): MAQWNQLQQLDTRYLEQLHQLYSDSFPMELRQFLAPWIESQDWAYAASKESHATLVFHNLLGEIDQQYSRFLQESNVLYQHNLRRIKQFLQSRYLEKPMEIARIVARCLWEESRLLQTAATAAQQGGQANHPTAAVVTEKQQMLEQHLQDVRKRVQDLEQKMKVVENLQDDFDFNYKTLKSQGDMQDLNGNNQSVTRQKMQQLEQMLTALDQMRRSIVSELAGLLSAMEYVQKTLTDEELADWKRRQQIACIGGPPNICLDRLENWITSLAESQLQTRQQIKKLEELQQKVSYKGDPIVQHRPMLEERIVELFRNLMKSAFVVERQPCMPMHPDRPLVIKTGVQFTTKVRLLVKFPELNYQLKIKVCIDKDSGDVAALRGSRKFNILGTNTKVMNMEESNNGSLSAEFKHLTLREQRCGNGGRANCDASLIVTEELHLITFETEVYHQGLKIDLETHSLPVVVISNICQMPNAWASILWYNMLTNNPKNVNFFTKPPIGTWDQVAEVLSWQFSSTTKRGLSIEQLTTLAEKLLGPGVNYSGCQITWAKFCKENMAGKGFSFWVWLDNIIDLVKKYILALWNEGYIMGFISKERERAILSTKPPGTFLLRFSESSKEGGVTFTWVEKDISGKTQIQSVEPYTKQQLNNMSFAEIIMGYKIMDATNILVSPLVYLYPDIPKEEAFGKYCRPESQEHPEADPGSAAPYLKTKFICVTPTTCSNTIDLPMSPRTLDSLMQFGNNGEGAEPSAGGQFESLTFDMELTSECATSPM
Description: STAT3 proteasomal degradation, Western blot with or without MG132. Format: cell-based. The procedure:
To explore whether the reduction in total STAT3 protein after DH_31 treatments (as shown in Figure 5B–E) occurs at the mRNA or protein levels, we first investigated mRNA levels using Real-time qPCR. […] To evaluate whether DH_31 affects STAT3 stability, pretreatment with MG132, a potent selective proteasome inhibitor, was performed. H460 cells were pretreated with or without MG132 (10 μM) for 1 h and then cells were either treated with DH_31 for 6 h or left untreated. […] The proteasome can recognize and degrade protein targets that are conjugated by single or poly-ubiquitin molecules. To investigate the ubiquitination level of STAT3 with DH_31 treatments, the ubiquitination level was evaluated using immunoprecipitation and Western blot analysis of the STAT3–ubiquitin complex in the lung cancer cells treated with DH_31 and in untreated cells.
Immunoprecipitation assay was performed to investigate ubiquitin–proteasomal degradation, shedding light on the regulatory mechanisms involved. H460 cells (4.0 × 10^5 cells per well) were seeded in 6-well plates. Following overnight incubation, the cells were pretreated with 10 μM of a proteasome inhibitor, MG132, for 1 h to prevent proteasomal degradation, and then were treated with different concentrations of DH_31 (0–2.5 μM) for 6 h. After treatment, the cells were lysed as described above. Immunoprecipitation was carried out using the Dynabeads™ Protein G Immunoprecipitation kit, following the manufacturers’ protocols. The magnetic beads were coated with the rabbit anti-STAT3, then incubated with whole-cell lysate and mixed gently overnight at 4 °C. After washing, the supernatant containing the antibody–antigen complex was used to perform Western blot analysis to detect the ubiquitinated STAT3 protein.
On the technique in general: A western blot detects proteins with antibodies after separation by electrophoresis.

For a further test, the system named is BEAS-2B cells. Description: MTT assay in non-tumorigenic bronchial epithelial cells (selectivity). It counts as cell-based. The settings on record: Homo sapiens, 24 h, read-out: BEAS-2B IC50 ± SD. As for the experimental part: as §1
Figure 2 The effect of RT right-half analogs on cytotoxicity in NSCLC and human normal lung epithelial (BEAS-2B) cell lines and apoptotic cell death in NSCLC cells. (A) NSCLC H292 and H460 cells were treated with derivatives of RT right-half analogs for 24 h and analyzed using MTT assay to assess cytotoxicity. (B) IC50 values for H292 and H460 cell lines were calculated. (C) BEAS-2B cells were treated with DH_28, DH_30, DH_31, and TM-(−)-18 for 24 h. The cytotoxic effects were evaluated using an MTT assay, and the IC50 values for BEAS-2B cells were determined. (D) H292 and H460 cells were seeded and treated with 0–10 μM of DH_28, DH_30, and DH_31 for 24 h. Hoechst 33342 and PI were used to stain the cell nuclei. Images were obtained under a fluorescence microscope. (E) The percentages of cell death were calculated based on the stained images in H292 and H460 cells. […] TEXT PRINTED IN THE PICTURE: (B) DH_17: IC50 ± SD (μM) H292: 20.50 ± 3.69; IC50 ± SD (μM) H460: > 100 | (B) DH_20: IC50 ± SD (μM) H292: 21.46 ± 3.77; IC50 ± SD (μM) H460: > 100 | (B) DH_23: IC50 ± SD (μM) H292: 17.50 ± 3.08; IC50 ± SD (μM) H460: > 100 | (B) DH_26: IC50 ± SD (μM) H292: 7.18 ± 2.39; IC50 ± SD (μM) H460: > 100 | (B) DH_28: IC50 ± SD (μM) H292: 9.56 ± 1.87; IC50 ± SD (μM) H460: 11.48 ± 1.87 | (B) DH_30: IC50 ± SD (μM) H292: 7.80 ± 2.30; IC50 ± SD (μM) H460: 4.51 ± 0.78 | (B) DH_31: IC50 ± SD (μM) H292: 5.54 ± 1.04; IC50 ± SD (μM) H460: 2.90 ± 0.58 | (B) TM-(–)-18: IC50 ± SD (μM) H292: > 100; IC50 ± SD (μM) H460: 7.89 ± 1.27 | (C) DH_28: BEAS-2B IC50 ± SD (μM): 16.46 ± 2.11 | (C) DH_30: BEAS-2B IC50 ± SD (μM): 5.50 ± 1.70 | (C) DH_31: BEAS-2B IC50 ± SD (μM): 6.51 ± 1.40 | (C) TM-(–)-18: BEAS-2B IC50 ± SD (μM): 7.25 ± 1.25 DOUBTS OF THE COPYIST ABOUT THIS PICTURE: Panel C, DH_28, IC50: small print, 16.46 ± 2.11 is the best reading; 6 could be 8 / Panel C, DH_30, IC50: small print, 5.50 ± 1.70 is the best reading; 5 could be 6 / Panel C, DH_31, IC50: small print, 6.51 ± 1.40 is the best reading; 6 could be 8 or 5 / Panel C, TM-(–)-18, IC50: small print, 7.25 ± 1.25 is the best reading

Details of test [3]: method as in PMID 32260280. Particulars: concentration-dependent manner; cited from earlier work.
In test [4] the test system is H292 cells. It counts as cell-based. Particulars: H292, 10 µM. As for the experimental part: (§3) Apoptosis is a crucial mechanism of cell death induced by anticancer drugs. We further analyzed the apoptosis induction effect of the potent small molecules, namely DH_28, DH_30, and DH_31. Nuclear morphology detected by the staining with nucleus-specific fluorescence dye Hoechst 33342 and cell-impermeable PI for necrotic detection was performed. Morphologic changes by means of condensed and/or fragmented nuclei were observed after 24 h of treatment (Figure 2D). […] Therefore, DH_31 was selected for further experiments.
(§4) Figure 2 The effect of RT right-half analogs on cytotoxicity in NSCLC and human normal lung epithelial (BEAS-2B) cell lines and apoptotic cell death in NSCLC cells. (A) NSCLC H292 and H460 cells were treated with derivatives of RT right-half analogs for 24 h and analyzed using MTT assay to assess cytotoxicity. (B) IC50 values for H292 and H460 cell lines were calculated. (C) BEAS-2B cells were treated with DH_28, DH_30, DH_31, and TM-(−)-18 for 24 h. The cytotoxic effects were evaluated using an MTT assay, and the IC50 values for BEAS-2B cells were determined. (D) H292 and H460 cells were seeded and treated with 0–10 μM of DH_28, DH_30, and DH_31 for 24 h. Hoechst 33342 and PI were used to stain the cell nuclei. Images were obtained under a fluorescence microscope. (E) The percentages of cell death were calculated based on the stained images in H292 and H460 cells. Data represent the mean ± SD (n = 3). *, **, and *** indicate a statistically significant difference between the treated and the untreated cells at p < 0.05, p < 0.01, and p < 0.001, respectively. TEXT PRINTED IN THE PICTURE: (B) DH_17: IC50 ± SD (μM) H292: 20.50 ± 3.69; IC50 ± SD (μM) H460: > 100 | (B) DH_20: IC50 ± SD (μM) H292: 21.46 ± 3.77; IC50 ± SD (μM) H460: > 100 | (B) DH_23: IC50 ± SD (μM) H292: 17.50 ± 3.08; IC50 ± SD (μM) H460: > 100 | (B) DH_26: IC50 ± SD (μM) H292: 7.18 ± 2.39; IC50 ± SD (μM) H460: > 100 | (B) DH_28: IC50 ± SD (μM) H292: 9.56 ± 1.87; IC50 ± SD (μM) H460: 11.48 ± 1.87 | (B) DH_30: IC50 ± SD (μM) H292: 7.80 ± 2.30; IC50 ± SD (μM) H460: 4.51 ± 0.78 | (B) DH_31: IC50 ± SD (μM) H292: 5.54 ± 1.04; IC50 ± SD (μM) H460: 2.90 ± 0.58 | (B) TM-(–)-18: IC50 ± SD (μM) H292: > 100; IC50 ± SD (μM) H460: 7.89 ± 1.27 | (C) DH_28: BEAS-2B IC50 ± SD (μM): 16.46 ± 2.11 | (C) DH_30: BEAS-2B IC50 ± SD (μM): 5.50 ± 1.70 | (C) DH_31: BEAS-2B IC50 ± SD (μM): 6.51 ± 1.40 | (C) TM-(–)-18: BEAS-2B IC50 ± SD (μM): 7.25 ± 1.25 DOUBTS OF THE COPYIST ABOUT THIS PICTURE: Panel C, DH_28, IC50: small print, 16.46 ± 2.11 is the best reading; 6 could be 8 / Panel C, DH_30, IC50: small print, 5.50 ± 1.70 is the best reading; 5 could be 6 / Panel C, DH_31, IC50: small print, 6.51 ± 1.40 is the best reading; 6 could be 8 or 5 / Panel C, TM-(–)-18, IC50: small print, 7.25 ± 1.25 is the best reading

In test [5] the test system is H460 cells. Format: cell-based. The settings on record: H460, 10 µM, 24 h. The procedure:
as §3, §4

The next test deals with B16F10 cells. On the set-up: method as in PMID 36014573. The settings on record: B16F10 cells induced by the RAW264.7 supernatant; cited from earlier work.

Like-named read-outs stand apart in the source and are kept apart here. Residues, ends and D or L forms follow the SMILES beside them. *: point of attachment. Cbz = O=C(OCc1ccccc1)*

Broadly, the IC50 is the concentration at which inhibition is half-maximal. Turning to `COc1c(C)cc2c(c1O)[C@@H]1CN(Cc3ccncc3)[C@@H](C#N)[C@H](C2)N1C` [DH_23, (1R,4R,5S)-10-hydroxy-9-methoxy-8,11-dimethyl-3-(pyridin-4-ylmethyl)-1,2,3,4,5,6-hexahydro-1,5-epiminobenzo[d]azocine-4-carbonitrile], the IC50 in the test with H292 cells [1] (Homo sapiens, NCI-H292, 24 h) was 17.5 ± 3.08 µM; with H460 cells [2], over 100 µM.
Take `CC(C)C[C@@H](C=O)NC(=O)[C@H](CC(C)C)NC(=O)[C@H](CC(C)C)NC(=O)OCc1ccccc1` [MG132] (Cbz-Leu-Leu-Leu-aldehyde): the “effect on DH_31-induced STAT3 downregulation” value on STAT3 (H460, MG132 10 μM 1 h pretreatment, then DH_31 0, 1, 2.5 µM 6 h) is reported as “significantly reversed”. Also, at STAT3 (H460, MG132 10 μM pretreatment, all DH_31 concentrations), the STAT3 level entry is listed as “drastically increased”.
As to `COc1c(C)cc2c(c1O)C1CN(Cc3ccccc3)C(C#N)C(C2)N1C` (stereo not drawn) [TM-(−)-18, reference compound], the IC50 in the test on H292 cells [1] (Homo sapiens, NCI-H292, 24 h) is over 100 µM; in the test with H460 cells [2], 7.89 ± 1.27 µM; in the test with BEAS-2B cells, 7.25 ± 1.25 µM. Further, the apoptosis result in test [3] is listed as “increased”.
With `COc1c(C)cc2c(c1OCc1ccccc1)[C@@H]1CN(Cc3ccc4ccccc4c3)[C@@H](C#N)[C@H](C2)N1C` [DH_30, (1R,4R,5S)-10-(benzyloxy)-9-methoxy-8,11-dimethyl-3-(naphthalen-2-ylmethyl)-1,2,3,4,5,6-hexahydro-1,5-epiminobenzo[d]azocine-4-carbonitrile], the IC50 in the test on H292 cells [1] (24 h) is under 15 µM; in the test with H292 cells [1] (Homo sapiens, NCI-H292, 24 h), 7.8 ± 2.3 µM; in the test with BEAS-2B cells, 5.5 ± 1.7 µM. Besides, the apoptosis result in the test on H292 cells [4] (24 h) was “significant apoptosis”. The necrosis entry in the test on H292 cells [4] (24 h (p < 0.001)) is on record as “Necrosis was detected”; in the test on H460 cells [5] it was “significant necrosis”. For the same compound, the apoptotic cell death entry in the test on H460 cells [5] is recorded as “significant apoptotic cell death”.
Take `CC=C(C)C(=O)OCC1c2c(c(O)c(C)c3c2OCO3)CC2C3C4=C(CC(C(C#N)N12)N3C)C(=O)C(C)=C(OC)C4=O` (stereo not drawn) [RT, Renieramycin T]: in the test on B16F10 cells, the STAT3 expression result was “reduced”; the “Twist, Snail, Vimentin, and N-cadherin expression” value is “reduced”; the migration ability result was “reduced”.

These data come from PMC11355573, “A New Renieramycin T Right-Half Analog as a Small Molecule Degrader of STAT3” (Marine Drugs, 2024).
